Results as given in the kinase profiling compilation of Christmann-Franck et al. (2016).

Experiments:
Assay in all cases: KINOMEscan competition binding
Details in all cases: compound 10.0 µM
DCLK3 (human) = DCLK3 (human) (UniProt Q9C098)
MERTK (human) = MERTK (human) (UniProt Q12866)
[1] = target: JAK1 JH1 catalytic (human) (UniProt P23458)
DCLK2 (human) = DCLK2 (human) (UniProt Q8N568)
TYRO3 (human) = TYRO3 (human) (UniProt Q06418)
NUAK1 (human) = NUAK1 (human) (UniProt O60285)
PKN2 (human) = PKN2 (human) (UniProt Q16513)
RPS6KA2 KD1 (human) = RPS6KA2 KD1 (human) (UniProt Q15349)
MAP4K4 (human) = MAP4K4 (human) (UniProt O95819)
RPS6KA6 KD1 (human) = RPS6KA6 KD1 (human) (UniProt Q9UK32)
CAMKK1 (human) = CAMKK1 (human) (UniProt Q8N5S9)
PRKCD (human) = PRKCD (human) (UniProt Q05655)
ROCK2 (human) = ROCK2 (human) (UniProt O75116)
AURKC (human) = AURKC (human) (UniProt Q9UQB9)
PDPK1 (human) = PDPK1 (human) (UniProt O15530)
RAF1 (human) = RAF1 (human) (UniProt P04049)
NTRK3 (human) = NTRK3 (human) (UniProt Q16288)
BRSK2 (human) = BRSK2 (human) (UniProt Q8IWQ3)
CAMKK2 (human) = CAMKK2 (human) (UniProt Q96RR4)
CSK (human) = CSK (human) (UniProt P41240)
CDC42BPB (human) = CDC42BPB (human) (UniProt Q9Y5S2)
ERBB4 (human) = ERBB4 (human) (UniProt Q15303)
MAPKAPK5 (human) = MAPKAPK5 (human) (UniProt Q8IW41)
BMPR2 (human) = BMPR2 (human) (UniProt Q13873)
[2] = target: JAK3 JH1 catalytic (human) (UniProt P52333)
[3] = tested on: FLT3 (human), P36888 [ITD]
IKBKB (human) = IKBKB (human) (UniProt O14920)
PAK2 (human) = PAK2 (human) (UniProt Q13177)
STK33 (human) = STK33 (human) (UniProt Q9BYT3)
PRKG2 (human) = PRKG2 (human) (UniProt Q13237)
AKT3 (human) = AKT3 (human) (UniProt Q9Y243)
GSK3B (human) = GSK3B (human) (UniProt P49841)
LIMK1 (human) = LIMK1 (human) (UniProt P53667)
STK24 (human) = STK24 (human) (UniProt Q9Y6E0)
CSNK2A1 (human) = CSNK2A1 (human) (UniProt P68400)
IGF1R (human) = IGF1R (human) (UniProt P08069)
FGFR3 (human) = FGFR3 (human) (UniProt P22607)
MARK2 (human) = MARK2 (human) (UniProt Q7KZI7)
MARK3 (human) = MARK3 (human) (UniProt P27448)
BLK (human) = BLK (human) (UniProt P51451)

PRKG2 (human), sequence (Q13237 whole entry, looked up): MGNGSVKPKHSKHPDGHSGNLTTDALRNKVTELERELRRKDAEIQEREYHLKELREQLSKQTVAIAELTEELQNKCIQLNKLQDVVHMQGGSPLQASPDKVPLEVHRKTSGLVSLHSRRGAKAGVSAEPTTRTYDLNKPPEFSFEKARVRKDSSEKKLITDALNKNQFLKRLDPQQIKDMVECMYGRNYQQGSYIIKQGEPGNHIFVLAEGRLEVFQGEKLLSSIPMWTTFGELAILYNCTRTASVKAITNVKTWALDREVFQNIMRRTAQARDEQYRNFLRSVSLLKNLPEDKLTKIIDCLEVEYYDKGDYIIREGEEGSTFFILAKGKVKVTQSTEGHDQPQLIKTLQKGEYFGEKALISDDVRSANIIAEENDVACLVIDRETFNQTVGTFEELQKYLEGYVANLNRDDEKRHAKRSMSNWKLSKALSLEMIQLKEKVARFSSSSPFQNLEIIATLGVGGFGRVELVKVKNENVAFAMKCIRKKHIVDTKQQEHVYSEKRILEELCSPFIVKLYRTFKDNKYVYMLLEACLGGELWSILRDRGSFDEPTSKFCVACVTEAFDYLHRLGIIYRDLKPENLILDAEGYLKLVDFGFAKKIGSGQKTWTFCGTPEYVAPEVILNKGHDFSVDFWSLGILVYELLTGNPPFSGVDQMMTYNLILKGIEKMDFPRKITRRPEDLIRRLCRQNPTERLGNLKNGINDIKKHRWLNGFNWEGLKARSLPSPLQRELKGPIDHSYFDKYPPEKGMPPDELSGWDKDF
IGF1R (human), sequence (P08069 whole entry, looked up): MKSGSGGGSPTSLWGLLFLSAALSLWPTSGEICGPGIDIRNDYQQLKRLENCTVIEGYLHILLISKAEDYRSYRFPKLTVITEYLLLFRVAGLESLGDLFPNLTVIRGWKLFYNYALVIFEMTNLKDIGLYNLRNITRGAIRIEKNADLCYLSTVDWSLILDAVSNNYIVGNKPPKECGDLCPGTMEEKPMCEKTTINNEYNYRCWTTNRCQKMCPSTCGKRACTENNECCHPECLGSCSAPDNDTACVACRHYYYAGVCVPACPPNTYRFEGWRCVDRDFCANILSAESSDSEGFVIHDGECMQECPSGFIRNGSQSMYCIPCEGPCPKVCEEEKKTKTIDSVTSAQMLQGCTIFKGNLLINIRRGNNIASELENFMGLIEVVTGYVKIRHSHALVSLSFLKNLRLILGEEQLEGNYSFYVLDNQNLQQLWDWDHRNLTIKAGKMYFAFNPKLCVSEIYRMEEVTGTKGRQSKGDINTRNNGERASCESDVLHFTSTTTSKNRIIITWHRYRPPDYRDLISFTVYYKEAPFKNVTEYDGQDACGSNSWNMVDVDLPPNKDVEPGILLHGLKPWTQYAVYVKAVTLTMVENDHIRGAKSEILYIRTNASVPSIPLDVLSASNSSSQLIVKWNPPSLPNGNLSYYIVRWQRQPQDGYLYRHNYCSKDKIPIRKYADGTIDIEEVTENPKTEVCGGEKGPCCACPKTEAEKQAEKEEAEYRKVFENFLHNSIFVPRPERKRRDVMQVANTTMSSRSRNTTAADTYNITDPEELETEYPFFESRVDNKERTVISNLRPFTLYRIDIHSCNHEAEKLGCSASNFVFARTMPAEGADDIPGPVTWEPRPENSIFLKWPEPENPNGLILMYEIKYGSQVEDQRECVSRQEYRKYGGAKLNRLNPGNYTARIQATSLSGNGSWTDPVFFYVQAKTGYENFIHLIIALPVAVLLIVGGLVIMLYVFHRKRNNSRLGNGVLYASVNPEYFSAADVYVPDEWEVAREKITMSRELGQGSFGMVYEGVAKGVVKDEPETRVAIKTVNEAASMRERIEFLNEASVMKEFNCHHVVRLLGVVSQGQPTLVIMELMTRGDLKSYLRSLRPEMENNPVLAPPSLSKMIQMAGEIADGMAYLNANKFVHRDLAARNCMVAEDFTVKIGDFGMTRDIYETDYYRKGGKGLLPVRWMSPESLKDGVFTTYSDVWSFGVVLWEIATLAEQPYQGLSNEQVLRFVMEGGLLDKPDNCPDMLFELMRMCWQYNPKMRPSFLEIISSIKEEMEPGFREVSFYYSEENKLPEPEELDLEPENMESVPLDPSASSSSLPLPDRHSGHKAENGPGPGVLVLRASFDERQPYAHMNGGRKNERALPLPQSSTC
STK24 (human), sequence (Q9Y6E0 whole entry, looked up): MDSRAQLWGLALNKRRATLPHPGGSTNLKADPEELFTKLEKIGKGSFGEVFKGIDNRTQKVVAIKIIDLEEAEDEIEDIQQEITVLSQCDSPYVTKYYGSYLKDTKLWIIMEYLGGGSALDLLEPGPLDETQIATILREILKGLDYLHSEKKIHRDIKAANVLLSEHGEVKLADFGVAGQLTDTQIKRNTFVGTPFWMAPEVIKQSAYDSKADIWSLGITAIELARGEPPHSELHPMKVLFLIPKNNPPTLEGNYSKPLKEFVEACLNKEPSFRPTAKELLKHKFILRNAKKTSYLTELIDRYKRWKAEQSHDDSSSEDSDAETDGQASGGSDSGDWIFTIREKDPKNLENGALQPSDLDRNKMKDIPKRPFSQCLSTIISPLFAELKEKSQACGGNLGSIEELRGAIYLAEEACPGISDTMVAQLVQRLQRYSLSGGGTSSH
MERTK (human), sequence (Q12866 whole entry, looked up): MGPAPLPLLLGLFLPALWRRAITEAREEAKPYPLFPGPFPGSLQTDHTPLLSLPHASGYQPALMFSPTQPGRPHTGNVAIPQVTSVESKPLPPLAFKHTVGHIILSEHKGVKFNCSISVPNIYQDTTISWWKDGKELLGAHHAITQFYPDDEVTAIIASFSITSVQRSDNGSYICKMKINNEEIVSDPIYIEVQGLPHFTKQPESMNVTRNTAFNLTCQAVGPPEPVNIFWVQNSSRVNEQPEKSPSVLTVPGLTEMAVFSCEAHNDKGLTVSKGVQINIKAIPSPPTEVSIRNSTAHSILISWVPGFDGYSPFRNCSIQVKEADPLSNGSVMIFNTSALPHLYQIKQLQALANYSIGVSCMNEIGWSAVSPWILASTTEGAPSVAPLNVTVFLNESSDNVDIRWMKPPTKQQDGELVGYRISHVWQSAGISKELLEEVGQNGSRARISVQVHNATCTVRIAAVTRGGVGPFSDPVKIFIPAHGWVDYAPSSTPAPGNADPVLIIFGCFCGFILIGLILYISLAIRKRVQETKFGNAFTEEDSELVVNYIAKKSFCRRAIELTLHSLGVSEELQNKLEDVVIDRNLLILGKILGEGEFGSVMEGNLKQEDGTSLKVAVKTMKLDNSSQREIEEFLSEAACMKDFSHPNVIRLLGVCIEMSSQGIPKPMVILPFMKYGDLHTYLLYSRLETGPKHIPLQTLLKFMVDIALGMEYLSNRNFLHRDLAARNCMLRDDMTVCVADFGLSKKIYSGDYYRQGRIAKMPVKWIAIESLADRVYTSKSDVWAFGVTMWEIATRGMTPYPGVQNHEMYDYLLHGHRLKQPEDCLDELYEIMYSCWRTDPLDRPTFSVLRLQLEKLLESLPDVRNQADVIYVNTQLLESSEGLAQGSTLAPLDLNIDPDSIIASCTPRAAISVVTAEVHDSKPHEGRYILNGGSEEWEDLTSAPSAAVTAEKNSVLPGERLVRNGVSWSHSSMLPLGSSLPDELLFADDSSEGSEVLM
CSK (human), sequence (P41240 whole entry, looked up): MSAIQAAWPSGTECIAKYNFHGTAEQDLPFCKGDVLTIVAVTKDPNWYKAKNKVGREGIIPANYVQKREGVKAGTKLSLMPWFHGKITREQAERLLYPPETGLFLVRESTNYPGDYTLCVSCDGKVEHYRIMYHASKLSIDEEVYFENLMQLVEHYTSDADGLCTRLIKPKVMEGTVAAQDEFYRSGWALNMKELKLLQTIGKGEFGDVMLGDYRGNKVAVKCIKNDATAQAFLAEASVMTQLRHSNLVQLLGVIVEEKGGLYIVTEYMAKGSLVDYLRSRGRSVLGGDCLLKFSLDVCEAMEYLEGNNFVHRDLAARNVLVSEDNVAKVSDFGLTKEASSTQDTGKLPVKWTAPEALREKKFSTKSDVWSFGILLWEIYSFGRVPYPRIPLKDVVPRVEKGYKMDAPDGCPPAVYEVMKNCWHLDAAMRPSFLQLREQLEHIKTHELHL
RPS6KA6 KD1 (human), sequence (Q9UK32 whole entry, looked up): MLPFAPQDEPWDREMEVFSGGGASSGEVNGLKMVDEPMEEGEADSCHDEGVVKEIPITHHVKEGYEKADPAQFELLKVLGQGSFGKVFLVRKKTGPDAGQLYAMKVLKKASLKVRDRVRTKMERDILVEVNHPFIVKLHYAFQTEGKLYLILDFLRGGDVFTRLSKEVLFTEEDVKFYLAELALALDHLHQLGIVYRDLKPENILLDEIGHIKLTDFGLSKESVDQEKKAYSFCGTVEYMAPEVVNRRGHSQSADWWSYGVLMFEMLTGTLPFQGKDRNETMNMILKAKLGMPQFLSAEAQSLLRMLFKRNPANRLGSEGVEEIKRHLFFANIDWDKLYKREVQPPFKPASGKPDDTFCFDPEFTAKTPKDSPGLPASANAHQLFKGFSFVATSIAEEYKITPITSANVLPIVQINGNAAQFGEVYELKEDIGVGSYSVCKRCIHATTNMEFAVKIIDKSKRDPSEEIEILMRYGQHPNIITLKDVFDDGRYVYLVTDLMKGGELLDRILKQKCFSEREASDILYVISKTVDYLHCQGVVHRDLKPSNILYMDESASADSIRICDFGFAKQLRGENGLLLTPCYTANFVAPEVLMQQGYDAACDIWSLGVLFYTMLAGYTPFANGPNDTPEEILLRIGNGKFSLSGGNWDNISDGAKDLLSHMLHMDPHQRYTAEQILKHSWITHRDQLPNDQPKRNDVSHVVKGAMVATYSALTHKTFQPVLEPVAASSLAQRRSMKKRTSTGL
AURKC (human), sequence (Q9UQB9 whole entry, looked up): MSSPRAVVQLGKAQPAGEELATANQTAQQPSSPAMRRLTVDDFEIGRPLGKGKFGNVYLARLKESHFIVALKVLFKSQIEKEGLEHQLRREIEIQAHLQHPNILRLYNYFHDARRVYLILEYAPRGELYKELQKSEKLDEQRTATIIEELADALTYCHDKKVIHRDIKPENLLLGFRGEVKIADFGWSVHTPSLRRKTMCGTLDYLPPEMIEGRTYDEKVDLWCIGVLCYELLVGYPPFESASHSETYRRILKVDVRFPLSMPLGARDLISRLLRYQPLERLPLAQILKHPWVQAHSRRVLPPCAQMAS

SMILES | kinase still bound, per cent of control (DCLK3 (human)) [%] | kinase still bound, per cent of control (MERTK (human)) [%] | kinase still bound, per cent of control [1] [%] | kinase still bound, per cent of control (DCLK2 (human)) [%] | kinase still bound, per cent of control (TYRO3 (human)) [%] | kinase still bound, per cent of control (NUAK1 (human)) [%] | kinase still bound, per cent of control (PKN2 (human)) [%] | kinase still bound, per cent of control (RPS6KA2 KD1 (human)) [%] | kinase still bound, per cent of control (MAP4K4 (human)) [%] | kinase still bound, per cent of control (RPS6KA6 KD1 (human)) [%] | kinase still bound, per cent of control (CAMKK1 (human)) [%] | kinase still bound, per cent of control (PRKCD (human)) [%] | kinase still bound, per cent of control (ROCK2 (human)) [%] | kinase still bound, per cent of control (AURKC (human)) [%] | kinase still bound, per cent of control (PDPK1 (human)) [%] | kinase still bound, per cent of control (RAF1 (human)) [%] | kinase still bound, per cent of control (NTRK3 (human)) [%] | kinase still bound, per cent of control (BRSK2 (human)) [%] | kinase still bound, per cent of control (CAMKK2 (human)) [%] | kinase still bound, per cent of control (CSK (human)) [%] | also measured
C=CC(=O)Nc1cccc(Nc2nc(N[C@H]3CC[C@H](N(C)C)CC3)nc3c2ncn3C(C)C)c1 | 86 | 16 | 88 | 89 | 100 | 93 | 61 | 4.4 | 53 | 8.2 | 40 | 83 | 10 | 69 | 100 | 100 | 28 | 100 | 25 | 90 | kinase still bound, per cent of control (CDC42BPB (human)): 76%; kinase still bound, per cent of control (ERBB4 (human)): 76%; kinase still bound, per cent of control (MAPKAPK5 (human)): 87%; kinase still bound, per cent of control (BMPR2 (human)): 79%; kinase still bound, per cent of control [2]: 89%; kinase still bound, per cent of control [3]: 1%; kinase still bound, per cent of control (IKBKB (human)): 76%; kinase still bound, per cent of control (PAK2 (human)): 61%; kinase still bound, per cent of control (STK33 (human)): 15%; kinase still bound, per cent of control (PRKG2 (human)): 96%; kinase still bound, per cent of control (AKT3 (human)): 91%; kinase still bound, per cent of control (GSK3B (human)): 94%; kinase still bound, per cent of control (LIMK1 (human)): 100%; kinase still bound, per cent of control (STK24 (human)): 43%; kinase still bound, per cent of control (CSNK2A1 (human)): 54%; kinase still bound, per cent of control (IGF1R (human)): 87%; kinase still bound, per cent of control (FGFR3 (human)): 68%; kinase still bound, per cent of control (MARK2 (human)): 57%; kinase still bound, per cent of control (MARK3 (human)): 81%; kinase still bound, per cent of control (BLK (human)): 17%
COc1cc(C(=O)NC2CCN(C)CC2)ccc1Nc1ncc2c(n1)N(C1CCCC1)C(C)CC(=O)N2C (stereo not given) | 100 | 100 | 100 | 19 | 100 | 100 | 100 | 100 | 100 | 100 | 100 | 100 | 100 | 100 | 100 | 100 | 100 | 100 | 24 | 100 | kinase still bound, per cent of control (CDC42BPB (human)): 100%; kinase still bound, per cent of control (ERBB4 (human)): 100%; kinase still bound, per cent of control (MAPKAPK5 (human)): 100%; kinase still bound, per cent of control (BMPR2 (human)): 100%; kinase still bound, per cent of control [2]: 100%; kinase still bound, per cent of control [3]: 100%; kinase still bound, per cent of control (IKBKB (human)): 100%; kinase still bound, per cent of control (PAK2 (human)): 100%; kinase still bound, per cent of control (STK33 (human)): 3.6%; kinase still bound, per cent of control (PRKG2 (human)): 100%; kinase still bound, per cent of control (AKT3 (human)): 100%; kinase still bound, per cent of control (GSK3B (human)): 100%; kinase still bound, per cent of control (LIMK1 (human)): 100%; kinase still bound, per cent of control (STK24 (human)): 100%; kinase still bound, per cent of control (CSNK2A1 (human)): 100%; kinase still bound, per cent of control (IGF1R (human)): 32%; kinase still bound, per cent of control (FGFR3 (human)): 100%; kinase still bound, per cent of control (MARK2 (human)): 100%; kinase still bound, per cent of control (MARK3 (human)): 100%; kinase still bound, per cent of control (BLK (human)): 100%
CN(C)C/C=C/C(=O)Nc1cccc(Nc2ncc3c(n2)N(C)c2ccccc2C(=O)N3C)c1 | 0.5 | 46 | 2.8 | 0.5 | 100 | 0.85 | 64 | 50 | 50 | 9.2 | 39 | 100 | 58 | 9.2 | 86 | 96 | 16 | 4.2 | 8.1 | 82 | kinase still bound, per cent of control (CDC42BPB (human)): 100%; kinase still bound, per cent of control (ERBB4 (human)): 100%; kinase still bound, per cent of control (MAPKAPK5 (human)): 85%; kinase still bound, per cent of control (BMPR2 (human)): 71%; kinase still bound, per cent of control [2]: 1.2%; kinase still bound, per cent of control [3]: 9.4%; kinase still bound, per cent of control (IKBKB (human)): 100%; kinase still bound, per cent of control (PAK2 (human)): 67%; kinase still bound, per cent of control (STK33 (human)): 8.9%; kinase still bound, per cent of control (PRKG2 (human)): 81%; kinase still bound, per cent of control (AKT3 (human)): 100%; kinase still bound, per cent of control (GSK3B (human)): 82%; kinase still bound, per cent of control (LIMK1 (human)): 71%; kinase still bound, per cent of control (STK24 (human)): 98%; kinase still bound, per cent of control (CSNK2A1 (human)): 100%; kinase still bound, per cent of control (IGF1R (human)): 100%; kinase still bound, per cent of control (FGFR3 (human)): 12%; kinase still bound, per cent of control (MARK2 (human)): 21%; kinase still bound, per cent of control (MARK3 (human)): 10%; kinase still bound, per cent of control (BLK (human)): 0.7%
